# Activity calls are given as the source filed them.
# Experiments:
# [1] = molecular target: Neuronal acetylcholine receptor; alpha9/alpha10 (Homo sapiens) (UniProt Q9UGM1+Q9GZZ6); assay: Agonist activity at human alpha9alpha10 nAChR expressed as xenopus laevis oocytes assessed as increase in receptor desensitization by measuring fold change in maximum response (Imax) measured after 120 secs by two-electrode voltage-clamp electrophysiology method relative to acetylcholine; format: cell-based; conditions: Oocyte, filed as agonist, time 120.0 sec
# [2] = molecular target: T1, Neuronal acetylcholine receptor; alpha3/beta4 (Homo sapiens) (UniProt P30926+P32297); assay: Agonist activity at human alpha3beta4 nAChR expressed in xenopus laevis oocytes at 100 uM measured after 120 secs by two-electrode voltage-clamp electrophysiology method relative to control; format: cell-based; conditions: Oocyte, time 120.0 sec
# THP-1 [3] = assay: Cytotoxicity against monocytic human THP-1 cells assessed as effect on lactate dehydrogenase activity in supernatant; format: toxicity, cell-based
# Oocyte [4] = assay: Inhibition of acetylcholine induced response in mouse muscle alpha1beta1epsilondelta nAChR expressed in xenopus laevis oocytes assessed as fold change at 30 uM preincubated with 3 uM acetylcholine followed by compound administration for 12 sec and measured 181 sec post washout by two-electrode voltage-clamp electrophysiology method relative to acetylcholine alone; format: cell-based
# [5] = Apparent permeability across apical to basolateral side in human Caco-2 cells at pH 6.8 at 5 ug/ml measured after 2 hrs by UPLC-MS/MS analysis; format: ADME, cell-based; conditions: caco-2, pH 6.8, 2 h, dose 5 µg/ml
# [6] = molecular target: T2, Neuronal acetylcholine receptor subunit alpha-7 (Homo sapiens, UniProt P36544); assay: Agonist activity at human alpha7 nAChR expressed as xenopus laevis oocytes assessed as increase in receptor desensitization by measuring fold change in peak current response at 30 uM incubated for 120 secs presence of PNU-120596 by two-electrode voltage-clamp electrophysiology method relative to acetylcholine; format: cell-based; conditions: Oocyte, filed as agonist, time 120.0 sec
# T2 sequence (P36544 whole entry): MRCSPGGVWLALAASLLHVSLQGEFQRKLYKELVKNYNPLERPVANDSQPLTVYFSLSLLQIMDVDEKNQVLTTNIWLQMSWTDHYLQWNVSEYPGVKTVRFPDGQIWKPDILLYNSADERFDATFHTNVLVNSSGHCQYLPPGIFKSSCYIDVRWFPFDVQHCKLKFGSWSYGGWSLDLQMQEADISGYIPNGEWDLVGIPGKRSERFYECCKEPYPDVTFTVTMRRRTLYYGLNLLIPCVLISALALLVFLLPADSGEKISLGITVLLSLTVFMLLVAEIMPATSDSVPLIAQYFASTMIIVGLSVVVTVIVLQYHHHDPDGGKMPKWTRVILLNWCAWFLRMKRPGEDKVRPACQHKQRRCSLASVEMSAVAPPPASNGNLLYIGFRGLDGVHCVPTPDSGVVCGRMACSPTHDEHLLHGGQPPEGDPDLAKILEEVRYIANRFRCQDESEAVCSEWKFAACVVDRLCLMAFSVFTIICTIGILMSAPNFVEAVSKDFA
# [7] = Apparent permeability across apical to basolateral side in human Caco-2 cells at pH 7.4 at 5 ug/ml measured after 2 hrs by UPLC-MS/MS analysis; format: ADME, cell-based; conditions: caco-2, pH 7.4, 2 h, dose 5 µg/ml
# [8] = Apparent permeability across basolateral to apical side in human Caco-2 cells at pH 5 at 5 ug/ml measured after 2 hrs by UPLC-MS/MS analysis; format: ADME, cell-based; conditions: caco-2, pH 5, 2 h, dose 5 µg/ml
# Mus musculus [9] = assay: Antiinflammatory activity in CFA-treated C57BL/6J mouse model assessed as reduction in paw edema at 20 mg/kg, ip measured after 6 hrs
# [10] = Metabolic stability in pooled BALB/c mouse plasma assessed as compound remaining at 1 uM measured after 0 to 120 mins by UPLC-MS/MS analysis; format: ADME, cell-free; conditions: time 0-120 min
# THP-1 [11] = assay: Induction of IL-1beta release in LPS primed monocytic human THP-1 cells at 10 uM primed with LPS for 5 hrs followed by compound addition and further incubated for 40 mins by ELISA; format: functional, cell-based
# [12] = Toxicity in C57BL/6J mouse assessed as effect on locomotor activity at 20 mg/kg, ip measured after 6 hrs; conditions: in vivo
# [13] = Metabolic stability in pooled BALB/c mouse plasma at 1 uM measured after 0 to 120 mins by UPLC-MS/MS analysis; format: ADME, cell-free; conditions: time 0-120 min
# Oocyte [14] = assay: Agonist activity at mouse muscle alpha1beta1epsilondelta nAChR expressed in xenopus laevis oocytes at 30 uM measured after 120 secs by two-electrode voltage-clamp electrophysiology method relative to control; format: cell-based; conditions: time 120.0 sec
# [15] = molecular target: T1, Neuronal acetylcholine receptor; alpha3/beta4 (Homo sapiens); assay: Inhibition of acetylcholine induced response in human alpha3beta4 nAChR expressed in xenopus laevis oocytes assessed as fold change at 100 uM preincubated with 3 uM acetylcholine followed by compound administration for 12 sec and measured 181 sec post washout by two-electrode voltage-clamp electrophysiology method relative to acetylcholine alone; format: cell-based; conditions: Oocyte
# PBMC [16] = assay: Inhibition of ATP-mediated IL-1beta release in LPS primed BzATP induced human PBMC cells at 100 uM primed with LPS for 3 hrs followed by BzATP and compound addition for 30 mins by ELISA; format: functional, cell-based
# [17] = Plasma protein binding in human; format: ADME, cell-free
# [18] = molecular target: T3, Neuronal acetylcholine receptor; alpha4/beta2 (Homo sapiens) (UniProt P17787+P43681); assay: Inhibition of acetylcholine induced response in human alpha4beta2 nAChR expressed in xenopus laevis oocytes assessed as fold change at 30 uM preincubated with 3 uM acetylcholine followed by compound administration for 12 sec and measured 181 sec post washout by two-electrode voltage-clamp electrophysiology method relative to acetylcholine alone; format: cell-based; conditions: Oocyte
# [19] = molecular target: Neuronal acetylcholine receptor subunit alpha-9 (Homo sapiens, UniProt Q9UGM1); assay: Agonist activity at human alpha9 nAChR expressed as xenopus laevis oocytes assessed as increase in receptor desensitization by measuring fold change in maximum response (Imax) measured after 120 secs by two-electrode voltage-clamp electrophysiology method relative to acetylcholine; format: cell-based; conditions: Oocyte, filed as agonist, time 120.0 sec
# Sequence of Neuronal acetylcholine receptor subunit alpha-9 (Q9UGM1 whole entry): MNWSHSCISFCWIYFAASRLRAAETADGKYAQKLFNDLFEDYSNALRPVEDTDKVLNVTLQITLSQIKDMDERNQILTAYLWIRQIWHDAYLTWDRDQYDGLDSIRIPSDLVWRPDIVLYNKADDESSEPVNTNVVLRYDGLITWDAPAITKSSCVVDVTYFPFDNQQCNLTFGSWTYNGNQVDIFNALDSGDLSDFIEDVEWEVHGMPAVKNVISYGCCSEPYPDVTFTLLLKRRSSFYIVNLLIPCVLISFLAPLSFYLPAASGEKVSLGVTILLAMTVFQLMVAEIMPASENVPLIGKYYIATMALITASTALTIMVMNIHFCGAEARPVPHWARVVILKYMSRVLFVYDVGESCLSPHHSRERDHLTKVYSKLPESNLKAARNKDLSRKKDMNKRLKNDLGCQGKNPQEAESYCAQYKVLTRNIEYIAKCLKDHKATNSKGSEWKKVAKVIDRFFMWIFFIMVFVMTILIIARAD
# [20] = Apparent permeability across apical to basolateral side in human Caco-2 cells at pH 5 at 5 ug/ml measured after 2 hrs by UPLC-MS/MS analysis; format: ADME, cell-based; conditions: caco-2, pH 5, 2 h, dose 5 µg/ml
# [21] = molecular target: T2, Neuronal acetylcholine receptor subunit alpha-7; assay: Partial agonist activity at human alpha7 nAChR expressed as xenopus laevis oocytes assessed as increase in receptor desensitization by measuring fold change in maximum response (Imax) measured after 120 secs by two-electrode voltage-clamp electrophysiology method relative to acetylcholine; format: cell-based; conditions: Oocyte, filed as partial agonist, time 120.0 sec
# Mus musculus [22] = assay: Antinociceptive activity in sham-treated C57BL/6J mouse model assessed as effect on von Frey response at 20 mg/kg, ip measured after 1 to 72 hrs; format: functional, organism-based; conditions: time 1-72 hrs
# [23] = Apparent permeability across basolateral to apical side in human Caco-2 cells at pH 6.8 at 5 ug/ml measured after 2 hrs by UPLC-MS/MS analysis; format: ADME, cell-based; conditions: caco-2, pH 6.8, 2 h, dose 5 µg/ml
# [24] = molecular target: T3, Neuronal acetylcholine receptor; alpha4/beta2 (Homo sapiens); assay: Agonist activity at human alpha4beta2 nAChR expressed in xenopus laevis oocytes at 30 uM measured after 120 secs by two-electrode voltage-clamp electrophysiology method relative to control; format: cell-based; conditions: Oocyte, time 120.0 sec
# Mus musculus [25] = assay: Antinociceptive activity in complete freund's adjuvant induced inflammatory pain in C57BL/6J mouse model assessed as increase in mechanical pain threshold at 20 mg/kg, ip pretreated with CFA for 3 days followed by compound treatment and measured after 1 to 72 hrs; format: functional, organism-based; conditions: time 1-72 hrs
# [26] = Apparent permeability across basolateral to apical side in human Caco-2 cells at pH 7.4 at 5 ug/ml measured after 2 hrs by UPLC-MS/MS analysis; format: ADME, cell-based; conditions: caco-2, pH 7.4, 2 h, dose 5 µg/ml
# PBMC [27] = assay: Inhibition of ATP-mediated IL-1beta release in LPS primed BzATP induced human PBMC cells at 100 fM primed with LPS for 3 hrs followed by BzATP and compound addition for 30 mins by ELISA; format: functional, cell-based
smiles,measurement,setting,value
CC[N+]1(C)CCN(c2ccc(C(=O)Nc3cccc(C)n3)cc2)CC1.[I-],fold change (FC),[1],0.92
same,Activity,[2],< 1%
same,Activity,THP-1 [3],Non-Toxic
same,fold change (FC),Oocyte [4],0.413
same,Papp,[5],2.2 10^-6 cm/s
same,fold change (FC),[6],0.13
same,Papp,[7],2.2 10^-6 cm/s
same,Papp,[8],1.9 10^-6 cm/s
same,Activity,Mus musculus [9],Active
same,Stability,[10],> 90%
same,Activity,THP-1 [11],inactive
same,Activity,[12],Non-Toxic
same,Stability,[13],Stable
same,Activity,Oocyte [14],< 1%
same,fold change (FC),[15],0.849
same,inhibition,PBMC [16],inactive
same,PPB,[17],32%
same,fold change (FC),[18],0.858
same,fold change (FC),[19],1.19
same,Papp,[20],1.9 10^-6 cm/s
same,fold change (FC),[21],0.4
same,Activity,Mus musculus [22],inactive
same,Papp,[23],2.6 10^-6 cm/s
same,Activity,[24],< 1%
same,Activity,Mus musculus [25],Active
same,Papp,[26],2.9 10^-6 cm/s
same,inhibition,PBMC [27],Active

# Source: ChEMBL document CHEMBL5506053, “Explorations of Agonist Selectivity for the α9* nAChR with Novel Substituted Carbamoyl/Amido/Heteroaryl Dialkylpiperazinium Salts and Their Therapeutic Implications in Pain and Inflammation” (J Med Chem, 2024)
